Data taken from article PMC13179060, “The role of ATP synthase subunit e (ATP5I) in mediating the metabolic and antiproliferative effects of metformin in cancer cells” (eLife, 2026).
One block for each molecule: values may come before it.

How the values were obtained:
[1] = molecular target: T1, ATP synthase subunit e (ATP5I) (Homo sapiens, UniProt P56385); assay: SPR, BFB immobilized on streptavidin chip, recombinant ATP5I as analyte, steady-state fit; supported by streptavidin pull-down and immunoblot; type: binding
T1 construct: gene ATP5ME; full-length human ATP5I, N-terminal 6x-His-tagged, expressed in E. coli (mainly oligomers, mostly decamers)
T1 sequence (P56385 1-69): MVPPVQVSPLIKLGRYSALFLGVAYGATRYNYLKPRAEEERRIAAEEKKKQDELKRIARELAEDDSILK

[2] = molecular target: the molecule itself; assay: SEC; gel filtration of purified rATP5I (legend: Superose 12 10/300 GL for the profile, Superose 6 10/300 GL for the calibration with thyroglobulin, γ-globulin, myoglobin and vitamin B12)

- Kd [1]: ~11.1 µM
Molecule: N=C(N)NC(=N)NCCCCCCNC(=O)CCCCC1SCC2NC(=O)NC21 (centres unmarked) [compound 3, BFB]

B1: N-terminal 6x-His-tagged ATP5I (ATP synthase subunit e), recombinant (natural protein, human, UniProt P56385 1-69, looked up)
chain: T1 sequence (P56385 1-69)
notes: The vector is pET-TEV; The protein was extracted under denaturing conditions and brought back into native buffer on the column; also called rATP5I; recombinant ATP5I; not shown: His6, N-terminal, kept
- stoichiometry N [2]: 10
